Results taken from patent US3948899A, “α-Cyanobenzylpiperazines and a process for producing the same” (Fuji Chemical Industry Co., Ltd., priority 1973, dated 1976).
Structures can show the parent of a compound that is named as a salt.

How the values were obtained:
Assay type in all cases: in vivo, dog
[1] = tested on: mongrel adult dogs; assay: Effects on arterial mean blood pressure (thoractomized anesthetized dogs, i.v.); settings: i.v. 2.0 mg/Kg
Protocol: (§1) All experiments were conducted on male and female thoractomized mongrel adult dogs weighing about 10 Kg under anesthesia with pentobarbital sodium.
(§2) Arterial blood pressure was measured by pressure transducer (Nippon Koden MPU-0.5) connected with the cannula inserted from exposed carotid artery into aorta. Aortic blood flow was determined by means of electromagnetic flow meter (Nippon Koden MF-5) mounted at an origin of aorta. Coronary sinus out flow and coronary sinus oxygen tension were assessed by means of electromagnetic flow meter (Nippon Koden MF-5) and Po2 Macro electrode (Beckmann Moder 160-C), respectively, using Morawitz cannulization technique. Heart rate was measured by cardiotachometer (Nippon Koden RT-2) synchronized with systolic blood pressure of aorta.

[2] = tested on: mongrel adult dogs; assay: Effects on aortic blood flow (thoractomized anesthetized dogs, i.v.)
Protocol: as §1, §2

[3] = tested on: mongrel adult dogs; assay: Effects on the work done by the left ventricle (thoractomized anesthetized dogs, i.v.)
Protocol: as §1, §2
The work done by the left ventricle is calculated according to the following equation: […]

[4] = tested on: mongrel adult dogs; assay: Effects on heart rate (thoractomized anesthetized dogs, i.v.)
Protocol: as §1, §2

COc1ccc(CN2CCNCC2)c(OC)c1OC [Vastarel F, 2,3,4 -trimethoxybenzylpiperazine dihydrochloride]
+5.0%: Changes(%) of basal values, aortic blood flow ([2]; i.v. 2.0 mg/Kg, 20 min) | Changes(%) of basal values, aortic blood flow ([2]; i.v. 2.0 mg/Kg, 30 min)
-55.0%: Changes(%) of basal values, arterial mean blood pressure ([1]; imm.)
+21.5%: Changes(%) of basal values, work of left ventricle ([3]; i.v. 2.0 mg/Kg, 10 min)
+0.5%: Changes(%) of basal values, aortic blood flow ([2]; i.v. 0.6 mg/Kg, 1 min) | Changes(%) of basal values, heart rate ([4]; i.v. 0.6 mg/Kg, 1 min) | Changes(%) of basal values, heart rate ([4]; i.v. 0.6 mg/Kg, 5 min)
+3.5%: Changes(%) of basal values, work of left ventricle ([3]; i.v. 2.0 mg/Kg, 25 min)
-2.0%: Changes(%) of basal values, arterial mean blood pressure ([1]; 30 min) | Changes(%) of basal values, work of left ventricle ([3]; i.v. 0.6 mg/Kg, 1 min) | Changes(%) of basal values, work of left ventricle ([3]; i.v. 0.6 mg/Kg, 10 min) | Changes(%) of basal values, work of left ventricle ([3]; i.v. 0.6 mg/Kg, 15 min) | Changes(%) of basal values, heart rate ([4]; i.v. 2.0 mg/Kg, 1 min) | Changes(%) of basal values, heart rate ([4]; i.v. 2.0 mg/Kg, 5 min)
-1.0%: Changes(%) of basal values, aortic blood flow ([2]; i.v. 0.6 mg/Kg, 10 min) | Changes(%) of basal values, aortic blood flow ([2]; i.v. 0.6 mg/Kg, 15 min) | Changes(%) of basal values, aortic blood flow ([2]; i.v. 0.6 mg/Kg, 20 min) | Changes(%) of basal values, work of left ventricle ([3]; i.v. 0.2 mg/Kg, 1 min) | Changes(%) of basal values, work of left ventricle ([3]; i.v. 0.2 mg/Kg, 15 min) | Changes(%) of basal values, work of left ventricle ([3]; i.v. 0.6 mg/Kg, 20 min) | Changes(%) of basal values, heart rate ([4]; i.v. 0.2 mg/Kg, 10 min) | Changes(%) of basal values, heart rate ([4]; i.v. 0.6 mg/Kg, 15 min) | Changes(%) of basal values, heart rate ([4]; i.v. 0.6 mg/Kg, 20 min) | Changes(%) of basal values, heart rate ([4]; i.v. 0.6 mg/Kg, 25 min) | Changes(%) of basal values, heart rate ([4]; i.v. 2.0 mg/Kg, 15 min) | Changes(%) of basal values, heart rate ([4]; i.v. 2.0 mg/Kg, 25 min)
+10.0%: Changes(%) of basal values, aortic blood flow ([2]; i.v. 2.0 mg/Kg, 15 min) | Changes(%) of basal values, work of left ventricle ([3]; i.v. 2.0 mg/Kg, 15 min)
-2.5%: Changes(%) of basal values, work of left ventricle ([3]; i.v. 0.2 mg/Kg, 5 min) | Changes(%) of basal values, work of left ventricle ([3]; i.v. 0.2 mg/Kg, imm.)
+3.0%: Changes(%) of basal values, work of left ventricle ([3]; i.v. 2.0 mg/Kg, 30 min)
+6.0%: Changes(%) of basal values, aortic blood flow ([2]; i.v. 2.0 mg/Kg, 25 min)
+5.5%: Changes(%) of basal values, heart rate ([4]; i.v. 2.0 mg/Kg, imm.)
-35.0%: Changes(%) of basal values, work of left ventricle ([3]; i.v. 2.0 mg/Kg, 1 min)
+23.0%: Changes(%) of basal values, aortic blood flow ([2]; i.v. 2.0 mg/Kg, 10 min)
+11.0%: Changes(%) of basal values, aortic blood flow ([2]; i.v. 2.0 mg/Kg, 5 min)
+9.0%: Changes(%) of basal values, work of left ventricle ([3]; i.v. 2.0 mg/Kg, 5 min)
+1.5%: Changes(%) of basal values, aortic blood flow ([2]; i.v. 0.6 mg/Kg, imm.) | Changes(%) of basal values, heart rate ([4]; i.v. 0.2 mg/Kg, imm.) | Changes(%) of basal values, heart rate ([4]; i.v. 0.6 mg/Kg, imm.)
-78.0%: Changes(%) of basal values, aortic blood flow ([2]; i.v. 2.0 mg/Kg, imm.)
+4.0%: Changes(%) of basal values, work of left ventricle ([3]; i.v. 2.0 mg/Kg, 20 min)
0%: Changes(%) of basal values, aortic blood flow ([2]; i.v. 0.2 mg/Kg, 1 min) | Changes(%) of basal values, aortic blood flow ([2]; i.v. 0.2 mg/Kg, 5 min) | Changes(%) of basal values, aortic blood flow ([2]; i.v. 0.2 mg/Kg, 10 min) | Changes(%) of basal values, aortic blood flow ([2]; i.v. 0.2 mg/Kg, 15 min) | Changes(%) of basal values, aortic blood flow ([2]; i.v. 0.2 mg/Kg, 20 min) | Changes(%) of basal values, aortic blood flow ([2]; i.v. 0.2 mg/Kg, 25 min) | Changes(%) of basal values, aortic blood flow ([2]; i.v. 0.2 mg/Kg, 30 min) | Changes(%) of basal values, aortic blood flow ([2]; i.v. 0.2 mg/Kg, imm.) | Changes(%) of basal values, aortic blood flow ([2]; i.v. 0.6 mg/Kg, 5 min) | Changes(%) of basal values, aortic blood flow ([2]; i.v. 0.6 mg/Kg, 30 min) | Changes(%) of basal values, aortic blood flow ([2]; i.v. 2.0 mg/Kg, 1 min) | Changes(%) of basal values, work of left ventricle ([3]; i.v. 0.2 mg/Kg, 20 min) | Changes(%) of basal values, work of left ventricle ([3]; i.v. 0.2 mg/Kg, 25 min) | Changes(%) of basal values, work of left ventricle ([3]; i.v. 0.2 mg/Kg, 30 min) | Changes(%) of basal values, work of left ventricle ([3]; i.v. 0.6 mg/Kg, 30 min) | Changes(%) of basal values, heart rate ([4]; i.v. 0.2 mg/Kg, 1 min) | Changes(%) of basal values, heart rate ([4]; i.v. 0.2 mg/Kg, 15 min) | Changes(%) of basal values, heart rate ([4]; i.v. 0.2 mg/Kg, 20 min) | Changes(%) of basal values, heart rate ([4]; i.v. 0.2 mg/Kg, 25 min) | Changes(%) of basal values, heart rate ([4]; i.v. 0.2 mg/Kg, 30 min) | Changes(%) of basal values, heart rate ([4]; i.v. 0.6 mg/Kg, 10 min) | Changes(%) of basal values, heart rate ([4]; i.v. 0.6 mg/Kg, 30 min)
-1.5%: Changes(%) of basal values, aortic blood flow ([2]; i.v. 0.6 mg/Kg, 25 min) | Changes(%) of basal values, work of left ventricle ([3]; i.v. 0.2 mg/Kg, 10 min) | Changes(%) of basal values, work of left ventricle ([3]; i.v. 0.6 mg/Kg, 5 min) | Changes(%) of basal values, work of left ventricle ([3]; i.v. 0.6 mg/Kg, 25 min) | Changes(%) of basal values, heart rate ([4]; i.v. 0.2 mg/Kg, 5 min) | Changes(%) of basal values, heart rate ([4]; i.v. 2.0 mg/Kg, 10 min) | Changes(%) of basal values, heart rate ([4]; i.v. 2.0 mg/Kg, 20 min) | Changes(%) of basal values, heart rate ([4]; i.v. 2.0 mg/Kg, 30 min)
-4.5%: Changes(%) of basal values, work of left ventricle ([3]; i.v. 0.6 mg/Kg, imm.)
-90.0%: Changes(%) of basal values, work of left ventricle ([3]; i.v. 2.0 mg/Kg, imm.)
